Source: patent US11541065B2, “Compositions and methods for treating brain injury” (UNM RAINFOREST INNOVATIONS, priority 2018, dated 2023)

Experiments:
Assay type in all cases: cell-based
[1] = test system: ERK MAPK; experiment: ERK MAPK phosphorylation during oxygen-glucose deprivation (OGD) in rat cortical neuron cultures; details: rat cortical neurons
Procedure: (§1) Equal protein from total cell lysates obtained from rat and mice neuronal cultures were resolved in 7.5% SDS-PAGE, and subjected to immunoblotting procedure as described earlier (Podder and Paul, 2009, J Neurochem 110:1095-1106). Blots were analyzed with antibodies as described in each experiment. All primary antibodies (anti-pERK, anti-ERK) and secondary-horse radish peroxidase conjugated antibody concentrations were used according to recommendations provided by the manufacturer. Signals from immune complexes in the blots were developed using West Pico supersignal chemiluminescence reagents and then captured on X-ray films. Densitometric analysis of the images was performed using the Image J software.
At specified time periods (one hour, two hours, and three hours) during OGD alone or OGD in the presence of L-Hcy (50 μM), cells were removed from the chamber and lysed for immunoblot analysis. Some cultures were treated with L-Hcy (three hours) during the OGD insult in the presence or absence of NVP-AAM077 (30 nM; 3 h). […] Cells were then subjected to staining with Hoechst 33342 dye for 15 minutes, washed extensively with PBS, and analyzed using fluorescent microscopy to assess nuclear damage. To quantitatively assess the percentage of pyknotic nuclei, a total of 1000 cells were counted for each set of experiments (Poddar et al., 2010, J Neurochem 115, 1350-1362).

[2] = test system: rat cortical neuronal cultures; experiment: Neuronal cell death by Hoechst DNA staining, rat cortical neuron cultures
Procedure: Neurons were subjected to staining with Hoechst 33342 dye for 15 minutes, washed extensively with PBS, and analyzed using fluorescent microscopy to assess nuclear damage. Imaging was performed with a Zeiss Axiovert 200M fluorescence microscope with attached AxioCam CCD camera using 20× objective lens (Carl Zeiss, Thomwood, N.Y.). To quantitatively assess the percentage of pyknotic nuclei a total of 1000 cells were counted for each set of experiments. Mean±SEM (n=3) were used for statistical comparison using ANOVA (Bonferroni's multiple comparison test). Differences were considered significant when p<0.05.
[…] Glutamate treated cells were then maintained in their original medium for another 17 hours. For some experiments, neurons were treated with L-homocysteine or glutamate in the presence of NVP-AAM077 or PD98059. The neurons were then fixed and stained with Hoechst 33342 dye as previously described (Poddar and Paul, 2009, J Neurochem 110:1095-1106). Percentage of pyknotic nuclei was quantitatively assessed by fluorescent microscopy to determine the extent of neuronal death.

[3] = test system: cPLA2; experiment: cPLA2 activity in rat neuronal lysates (enzymatic assay); details: for effect on homocysteine-mediated increase in cPLA2 activity: rat neurons, L-homocysteine 50 μM four hours, with MK801 10 μM, NVP-AAM077 30 nM, Ro 25-6981 1 μM, PD98059 15 μM or SB203580 5 μM
Procedure: (§2) Neuron cultures were treated with or without L-homocysteine in the presence or absence of pharmacological inhibitors for the time period specified in each experiment. The medium was collected from each experimental plate and centrifuged at 1000 rpm for five minutes to remove cellular debris. Equal amounts (100 μl) of the supernatant from each sample were used to determine the amount of PGE2 using the PGE2 enzyme immunoassay kit according to the manufacturer's instructions. For measurement of cPLA2 activity, the neuronal cells from the above treated conditions were harvested in ice-cold Tris-buffered saline (pH7.4) containing sodium pyrophosphate as phosphatase inhibitor, sonicated three times with five-second bursts and two minutes on ice between intervals. The lysed cell suspensions were centrifuged at 10,000 rpm for 10 minutes and the supernatant removed. Equal amounts of protein from the supernatant (assessed using BCA protein estimation kit) were estimated for activity of cPLA2 using cPLA2 activity assay kit according to the manufacturer's protocol.
For measurement of cPLA2 activity and MCP-1 levels in cell lysates, neuronal lysates were prepared by harvesting neurons in ice-cold Tris-buffered saline (pH 7.4) containing phosphatase inhibitor, sonicated three times in five-second bursts and placed on ice (two minutes) between each burst of sonication. The lysed cell suspensions were centrifuged at 10,000 rpm (10 minutes) and the supernatant was collected in another tube. Equal amounts of protein from the supernatant were processed for cPLA2 activity assay according to the manufacturer's protocol. Equal protein from the lysates were also used to estimate MCP-1 levels using an MCP-1 ELISA kit.

[4] = test system: COX2; experiment: COX2 protein level in rat neuronal cultures (immunoblot); details: for effect on homocysteine-induced increase in COX2 protein level: rat neurons, L-homocysteine 50 μM four hours, with MK801 10 μM, NVP-AAM077 30 nM, Ro 25-6981 1 μM, PD98059 15 μM, SB203580 5 μM or Bengamide B 500 nM
Procedure: as §1, with “(Poddar” for “(Podder”, “(anti-COX2, anti-B-tubulin)” for “(anti-pERK, anti-ERK)”
Rat and mice neuronal cultures were washed with PBS (pH 7.4), containing sodium pyrophosphate and sodium vanadate as phosphatase inhibitors, and harvested in SDS sample buffer (Laemmli, 1970, Nature 227:680-685). Equal protein from total cell lysates, estimated using BCA kit, was resolved by SDS-PAGE (7.5%) followed by western blotting on PVDF membranes. Immunoblot analysis was performed by first blocking with 5% non-fat dry milk for 1 h at room temperature followed by incubation with either COX2 immunoblot analysis (Poddar and Paul, 2009, J Neurochem 110:1095-1106) as described in each experiment. All primary antibodies and horseradish peroxidase conjugated secondary antibodies were used according to manufacturer's recommendations. Signals from immune complexes in the blots were developed using West Pico supersignal chemiluminescence reagents and then captured on X-ray films. Densitometric analysis of the images was performed using the NIH Image J software.

[5] = test system: PGE2; experiment: PGE2 release from rat neuronal cultures (enzyme immunoassay / ELISA of culture media); details: for effect on homocysteine-induced PGE2 release: rat neurons, L-homocysteine 50 μM four hours, with DL-AP5 200 μM, MK801 10 μM, NVP-AAM077 30 nM, Ro 25-6981 1 μM, PD98059 15 μM, SB203580 5 μM, Bengamide B 500 nM or CAY10404 100 nM
Procedure: as §2
For measurement of PGE2 levels and MCP-1 levels released from neurons, culture medium was collected from each experimental plate and centrifuged at 1000 rpm for five minutes to remove cellular debris. Equal volume (100 μl) of the supernatant from each sample was used to determine PGE2 level using the PGE2 ELISA kit according to the manufacturer's instructions.

[6] = cortical neurons, L-homocysteine 50 μM, time course, alone

Row | SMILES | ERK MAPK phosphorylation during OGD ([1]; OGD in the presence of L-Hcy 50 μM, time course up to three hours) | number of apoptotic cells (pyknotic nuclei) ([2]; rat cortical neurons, L-homocysteine 50 μM, 24 hours, alone vs untreated controls) | cell death (pyknotic nuclei) ([2]; rat neurons, L-homocysteine 50 μM, 18 h, alone) | cPLA2 activity ([3]; primary cortical neurons, L-homocysteine 50 μM, 0-6 hours, alone) | COX2 protein levels [4, 6] | PGE2 levels released into the medium [5, 6] | effect on homocysteine-mediated increase in cPLA2 activity [3] | effect on homocysteine-induced increase in COX2 protein level [4] | effect on homocysteine-induced PGE2 release [5] | effect on ERK MAPK activation by OGD plus L-homocysteine ([1]; OGD and L-Hcy 50 μM three hours, NVP-AAM077 30 nM) | effect on homocysteine-induced apoptotic cells ([2]; rat cortical neurons, L-homocysteine 50 μM 24 hours, NVP-AAM077 30 nM) | effect on homocysteine-induced neuronal death ([2]; rat neurons, L-homocysteine 50 μM 18 hours, with NVP-AAM077 30 nM or PD98059 15 μM)
1 | N[C@@H](CCS)C(=O)O [L-homocysteine] | causes sustained ERK MAPK phosphorylation | significant increase in the number of apoptotic cells | significant increase in cell death | significantly increases cPLA2 activity with time | progressive increase in COX2 protein levels | significant increase in PGE2 levels within two hours | – | – | – | – | – | –
2 | C[C@@H](CN1CCC(Cc2ccccc2)CC1)[C@@H](O)c1ccc(O)cc1 [Ro 25-6981] | – | – | – | – | – | – | fails to attenuate homocysteine-mediated increase in cPLA2 activity | fails to ameliorate homocysteine-induced increase in COX2 protein level | fails to alter homocysteine-induced increase in PGE2 level | – | – | –
3 | C[C@H](NC(c1cccc2[nH]c(=O)c(=O)[nH]c12)P(=O)(O)O)c1ccc(Br)cc1 (stereo partly drawn) [NVP-AAM077, ({[(1S)-1-(4-bromophenyl)ethyl]amino}-(2,3-dioxo-1,4-dihydroquinoxalin-5-yl)methyl)phosphonic acid] | – | – | – | – | – | – | inhibits homocysteine-mediated increase in cPLA2 activity | blocks homocysteine-induced increase in COX2 protein expression | significantly reduced | inhibits the activation of ERK MAPK | significantly reduced the number of apoptotic cells | Significantly Reduces Homocysteine-Induced Neuronal Death
